Test results: patent publication US20140005163A1 (NOVARTIS AG, priority 2010, published 2014)

Tests used:
mTOR = target: T1, mTOR (Homo sapiens, UniProt P42345); test: Biochemical assay for m-TOR by TR-FRET; settings: 8 μM ATP, 400 nM GFP-4EBP1, 0.5 nM mTOR
T1 construct: purchased Invitrogen Corporation (Carlsbad/CA, USA) PV4753
Outline: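 mTOR (0.5 nM final) phosphorylated GFP-4EBP1 (400 nM final) with ATP (8 μM final) at rt in 50 mM HEPES pH 7.5, 10 mM MnCl2, 50 mM NaCl, 1 mM EGTA, 1 mM DTT. EDTA stop with Tb3+-anti-p4EBP1 [pThr46] antibody (0.5 nM); TR-FRET read 15 min later.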

PI3K beta = target: T2, PI3K beta (Homo sapiens, UniProt P42338); test: PI3K beta kinase assay (Kinase-Glo luminescence); format: biochemical
T2 construct: for the full-length p110-b subunit are generated and fused by overlapping PCR; p85(iSH2) fusion partner (see partner chain) (N); His tag (C); made in house; host or cells: baculovirus; Tn5 (Trichoplusia ni) or TiniPro insect cells
T2 sequence (P42338 with tags, fused parts or gaps limits assumed): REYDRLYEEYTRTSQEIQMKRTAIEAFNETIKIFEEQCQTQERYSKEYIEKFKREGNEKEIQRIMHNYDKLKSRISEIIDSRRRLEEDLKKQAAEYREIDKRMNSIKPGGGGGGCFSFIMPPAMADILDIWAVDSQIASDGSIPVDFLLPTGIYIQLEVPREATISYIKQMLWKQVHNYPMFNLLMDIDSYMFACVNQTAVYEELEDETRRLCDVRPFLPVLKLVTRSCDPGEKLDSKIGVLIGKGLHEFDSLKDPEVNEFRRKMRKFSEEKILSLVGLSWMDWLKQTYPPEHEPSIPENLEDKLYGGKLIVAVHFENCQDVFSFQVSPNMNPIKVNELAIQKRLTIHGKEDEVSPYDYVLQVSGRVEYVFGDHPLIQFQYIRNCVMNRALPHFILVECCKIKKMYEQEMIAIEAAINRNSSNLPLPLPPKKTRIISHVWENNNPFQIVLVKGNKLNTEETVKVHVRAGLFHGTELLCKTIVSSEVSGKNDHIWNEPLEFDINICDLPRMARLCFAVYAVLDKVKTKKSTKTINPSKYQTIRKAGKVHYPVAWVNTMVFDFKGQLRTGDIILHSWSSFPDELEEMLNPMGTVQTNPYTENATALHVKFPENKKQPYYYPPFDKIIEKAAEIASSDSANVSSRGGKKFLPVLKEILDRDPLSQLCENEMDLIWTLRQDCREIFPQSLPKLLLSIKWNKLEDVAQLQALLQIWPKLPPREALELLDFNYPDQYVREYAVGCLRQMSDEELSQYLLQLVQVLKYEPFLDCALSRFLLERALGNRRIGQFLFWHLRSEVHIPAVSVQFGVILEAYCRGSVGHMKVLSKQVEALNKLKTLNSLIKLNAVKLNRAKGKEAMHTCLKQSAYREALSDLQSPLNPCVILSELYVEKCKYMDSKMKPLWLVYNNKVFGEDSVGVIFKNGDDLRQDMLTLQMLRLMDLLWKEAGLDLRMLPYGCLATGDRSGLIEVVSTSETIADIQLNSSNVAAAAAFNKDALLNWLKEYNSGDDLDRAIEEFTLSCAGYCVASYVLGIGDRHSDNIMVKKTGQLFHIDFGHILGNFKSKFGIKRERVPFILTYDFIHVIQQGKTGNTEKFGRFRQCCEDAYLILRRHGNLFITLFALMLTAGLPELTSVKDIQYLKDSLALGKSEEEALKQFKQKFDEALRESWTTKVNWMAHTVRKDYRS
Outline: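 Full-length p110β with a Gly-linked p85 iSH2 and a C-terminal His tag (BV949, 25 nM) was incubated with 10 μg/mL phosphatidylinositol and 1 μM ATP in 10 mM Tris pH 7.5, 3 mM MgCl2, 50 mM NaCl, 0.05% CHAPS, 1 mM DTT for 60 min at room temperature. Residual ATP was read by Kinase-Glo luminescence.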

[1] = system: PKB Ser473 phosphorylation in Rat1-myr-HA-p110 alpha cells; test: Reverse protein array assay, PKB Ser473 phosphorylation in Rat1-myr-p110 alpha cells; format: cell-based; settings: 0.5 h, pAkt Ser473, 30 minutes compound incubation, read-out: p-PKB IC50
Outline: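 Cells: Rat1-myr-HA-p110 alpha/beta/delta, seeded ≥20 h. Lysis on ice 10 min; reverse-phase protein array, 4 lysate dilutions; fluorescence read, relative intensity.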

T1 sequence (P42345 1360-2549 limits assumed): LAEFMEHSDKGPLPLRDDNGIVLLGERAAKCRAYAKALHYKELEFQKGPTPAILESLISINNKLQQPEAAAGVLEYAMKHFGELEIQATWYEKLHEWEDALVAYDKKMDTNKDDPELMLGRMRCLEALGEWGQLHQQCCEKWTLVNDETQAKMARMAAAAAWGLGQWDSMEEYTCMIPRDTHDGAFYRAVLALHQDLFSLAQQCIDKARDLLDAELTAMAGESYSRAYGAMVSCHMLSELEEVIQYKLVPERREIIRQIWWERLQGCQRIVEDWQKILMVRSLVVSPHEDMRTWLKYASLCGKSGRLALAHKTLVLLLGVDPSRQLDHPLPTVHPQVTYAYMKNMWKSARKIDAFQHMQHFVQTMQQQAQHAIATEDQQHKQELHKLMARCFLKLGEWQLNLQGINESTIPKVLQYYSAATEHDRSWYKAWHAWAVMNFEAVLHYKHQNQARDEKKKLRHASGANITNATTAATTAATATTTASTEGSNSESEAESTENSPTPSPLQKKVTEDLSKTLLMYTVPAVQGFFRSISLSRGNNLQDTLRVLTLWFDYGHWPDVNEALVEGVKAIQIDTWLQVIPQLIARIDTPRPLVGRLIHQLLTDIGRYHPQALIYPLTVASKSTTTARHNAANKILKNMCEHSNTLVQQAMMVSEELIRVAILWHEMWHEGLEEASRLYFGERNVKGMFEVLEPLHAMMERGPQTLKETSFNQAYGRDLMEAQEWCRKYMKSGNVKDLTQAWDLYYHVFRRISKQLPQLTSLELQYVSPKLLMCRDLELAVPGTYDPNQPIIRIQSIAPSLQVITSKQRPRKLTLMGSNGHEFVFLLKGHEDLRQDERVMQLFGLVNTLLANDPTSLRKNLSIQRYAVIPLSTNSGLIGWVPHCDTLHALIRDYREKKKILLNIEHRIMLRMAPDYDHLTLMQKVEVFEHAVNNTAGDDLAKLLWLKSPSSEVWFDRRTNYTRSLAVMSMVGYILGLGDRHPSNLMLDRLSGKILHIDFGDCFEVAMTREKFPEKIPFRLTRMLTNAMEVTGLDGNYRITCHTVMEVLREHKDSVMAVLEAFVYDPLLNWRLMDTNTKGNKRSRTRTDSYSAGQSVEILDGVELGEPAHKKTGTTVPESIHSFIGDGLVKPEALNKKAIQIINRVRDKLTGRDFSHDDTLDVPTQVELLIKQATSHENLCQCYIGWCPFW

Structure (SMILES) | IC50 (mTOR) [nM] | IC50 (PI3K beta) [nM] | IC50 [1] [nM]
CCOc1cc(-c2ccc3ncc4c(c3c2)n(-c2cn(C)nc2C)c(=O)n4C)ccc1OC [Example 28.3, 1-(1,3-Dimethyl-1H-pyrazo1-4-yl)-8-(3-ethoxy-4-methoxy-phenyl)-3-methyl-1,3-dihydro-imidazo[4,5-c]quinolin-2-one] | 13 | 31 | 9
CCOc1ccc(-c2ccc3ncc4c(c3c2)n(-c2cn(C)nc2C)c(=O)n4C)cc1OC [Example 29.3, 1-(1,3-Dimethyl-1H-pyrazol-4-yl)-8-(4-ethoxy-3-methoxy-phenyl)-3-methyl-1,3-dihydro-imidazo[4,5-c]quinolin-2-one] | 7 | 144 | 8
CCn1cc(-n2c(=O)n(C)c3cnc4ccc(-c5ccc(OCCOC)c(OC)c5)cc4c32)c(C)n1 [Example 30.2, 1-(1-Ethyl-3-methyl-1H-pyrazol-4-yl)-8-[3-methoxy-4-(2-methoxy-ethoxy)-phenyl]-3-methyl-1,3-dihydro-imidazo[4,5-c]quinolin-2-one] | 54 | 239 | 44
Cc1nn(C)cc1-n1c(=O)n(C)c2cnc3ccc(-c4cccc(O)c4)cc3c21 [Example 32.1, 1-(1,3-Dimethyl-1H-pyrazol-4-yl)-8-(3-hydroxy-phenyl)-3-methyl-1,3-dihydro-imidazo[4,5-c]quinolin-2-one] | 28 | 43 | 85
Cc1nn(C)cc1-n1c(=O)n(C)c2cnc3ccc(-c4cccc5c4OC(F)(F)O5)cc3c21 [Example 35, 8-(2,2-Difluoro-benzo[1,3]dioxol-4-yl)-1-(1,3-dimethyl-1H-pyrazol-4-yl)-3-methyl-1,3-dihydro-imidazo[4,5-c]quinolin-2-one] | 51 | 37 | 8
Cc1nn(C)cc1-n1c(=O)n(C)c2cnc3ccc(-c4ccccc4)cc3c21 [Example 37.1, 1-(1,3-Dimethyl-1H-pyrazol-4-yl)-3-methyl-8-phenyl-1,3-dihydro-imidazo[4,5-c]quinolin-2-one] | 213 | 970 | 98
Cc1nn(C)cc1-n1c(=O)n(C)c2cnc3ccc(-c4cccc(S(C)(=O)=O)c4)cc3c21 [Example 40, 1-(1,3-Dimethyl-1H-pyrazol-4-yl)-8-(3-methanesulfonyl-phenyl)-3-methyl-1,3-dihydro-imidazo[4,5-c]quinolin-2-one] | 71 | 34 | 77
Cc1nn(C)cc1-n1c(=O)n(C)c2cnc3ccc(-c4ccc(C(N)=O)cc4)cc3c21 [Example 41, 4-[1-(1,3-Dimethyl-1H-pyrazol-4-yl)-3-methyl-2-oxo-2,3-dihydro-1H-imidazo[4,5-c]quinolin-8-yl]-benzamide] | 5 | 112 | 48
Cc1nn(C)cc1-n1c(=O)n(C)c2cnc3ccc(-c4cccc(C(N)=O)c4)cc3c21 [Example 46, 3-[1-(1,3-Dimethyl-1H-pyrazol-4-yl)-3-methyl-2-oxo-2,3-dihydro-1H-imidazo[4,5-c]quinolin-8-yl]-benzamide] | 231 | 563 | 214
Cc1nn(C)cc1-n1c(=O)n(C)c2cnc3ccc(-c4ccc5c(c4)CC(=O)N5)cc3c21 [Example 49, 1-(1,3-Dimethyl-1H-pyrazol-4-yl)-3-methyl-8-(2-oxo-2,3-dihydro-1H-indol-5-yl)-1,3-dihydro-imidazo[4,5-c]quinolin-2-one] | 46 | 506 | 51
Cc1nn(C)cc1-n1c(=O)n(C)c2cnc3ccc(-c4cccc(S(=O)(=O)N(C)C)c4)cc3c21 [Example 53.1, 3-[1-(1,3-Dimethyl-1H-pyrazol-4-yl)-3-methyl-2-oxo-2,3-dihydro-1H-imidazo[4,5-c]quinolin-8-yl]-N,N-dimethyl-benzenesulfonamide] | 107 | 51 | 15
COCc1cncc(-c2ccc3ncc4c(c3c2)n(-c2cn(C)nc2C)c(=O)n4C)c1 [Example 54.1, 1-(1,3-Dimethyl-1H-pyrazol-4-yl)-8-(5-methoxymethyl-pyridin-3-yl)-3-methyl-1,3-dihydro-imidazo[4,5-c]quinolin-2-one] | 79 | 28 | 95
CCOc1cncc(-c2ccc3ncc4c(c3c2)n(-c2cn(C)nc2Cl)c(=O)n4C)c1 [Example 56.4, 1-(3-Chloro-1-methyl-1H-pyrazol-4-yl)-8-(5-ethoxy-pyridin-3-yl)-3-methyl-1,3-dihydro-imidazo[4,5-c]quinolin-2-one] | 16 | 6 | 9
Cc1nn(C)cc1-n1c(=O)n(C)c2cnc3ccc(-c4cncc(OC(C)C)c4)cc3c21 [Example 58.1, 1-(1,3-Dimethyl-1H-pyrazol-4-yl)-8-(5-isopropoxy-pyridin-3-yl)-3-methyl-1,3-dihydro-imidazo[4,5-c]quinolin-2-one] | 14 | 7 | 21
CCN(C)C(=O)Cn1cc(-n2c(=O)n(C)c3cnc4ccc(-c5cncc(OC(C)C)c5)cc4c32)c(C)n1 [Example 58.5, N-Ethyl-2-{4-[8-(5-isopropoxy-pyridin-3-yl)-3-methyl-2-oxo-2,3-dihydro-imidazo[4,5-c]quinolin-1-yl]-3-methyl-pyrazol-1-yl}-N-methyl-acetamide] | 23 | 69 | 53
COc1ncc(-c2ccc3ncc4c(c3c2)n(-c2cn(C)nc2C)c(=O)n4C)cc1NC(C)=O [Example 64, N-{5-[1-(1,3-Dimethyl-1H-pyrazol-4-yl)-3-methyl-2-oxo-2,3-dihydro-1H-imidazo[4,5-c]quinolin-8-yl]-2-methoxy-pyridin-3-yl}-acetamide] | 30 | 322 | 12
COc1ncc(-c2ccc3ncc4c(c3c2)n(-c2cn(C)nc2C)c(=O)n4C)cc1[N+](=O)[O-] [Example 66, 1-(1,3-dimethyl-1H-pyrazol-4-yl)-8-(6-methoxy-5-nitro-pyridin-3-yl)-3-methyl-1,3-dihydro-imidazo[4,5-c]quinolin-2-one] | 207 | 56 | 96
Cc1nn(C)cc1-n1c(=O)n(C)c2cnc3ccc(-c4cnc5c(c4)nnn5C)cc3c21 [Example 72, 1-(1,3-Dimethyl-1H-pyrazol-4-yl)-3-methyl-8-(3-methyl-3H-[1,2,3]triazolo[4,5-b]pyridin-6-yl)-1,3-dihydro-imidazo[4,5-c]quinolin-2-one] | 179 | 112 | 166
Cc1nn(C)cc1-n1c(=O)n(C)c2cnc3ccc(-c4cnc5c(c4)ncn5C)cc3c21 [Example 74, 1-(1,3-Dimethyl-1H-pyrazol-4-yl)-3-methyl-8-(3-methyl-3H-imidazo[4,5-b]pyridin-6-yl)-1,3-dihydro-imidazo[4,5-c]quinolin-2-one] | 30 | 370 | 20
Cc1ncc(-c2ccc3ncc4c(c3c2)n(-c2cn(C)nc2C)c(=O)n4C)cc1OC(C)C [Example 84.1, 1-(1,3-Dimethyl-1H-pyrazol-4-yl)-8-(5-isopropoxy-6-methyl-pyridin-3-yl)-3-methyl-1,3-dihydro-imidazo[4,5-c]quinolin-2-one] | 4 | 8 | < 5
CCNc1cc(-c2ccc3ncc4c(c3c2)n(-c2c(C)nn(CC(=O)N(C)C)c2C)c(=O)n4C)cnc1C [Example 87.5, 2-{4-[8-(5-Ethylamino-6-methyl-pyridin-3-yl)-3-methyl-2-oxo-2,3-dihydro-imidazo[4,5-c]quinolin-1-yl]-3,5-dimethyl-pyrazol-1-yl}-N,N-dimethyl-acetamide] | 29 | 335 | 237
CCNc1cc(-c2ccc3ncc4c(c3c2)n(-c2c(C)nn(CCOC)c2C)c(=O)n4C)cnc1OC [Example 90.2, 8-(5-Ethylamino-6-methoxy-pyridin-3-yl)-1-[1-(2-methoxy-ethyl)-3,5-dimethyl-1H-pyrazol-4-yl]-3-methyl-1,3-dihydro-imidazo[4,5-c]quinolin-2-one] | 129 | 115 | 17
Cc1nn(C)cc1-n1c(=O)n(C)c2cnc3ccc(-c4cnc5cc[nH]c5c4)cc3c21 [Example 99, 1-(1,3-Dimethyl-1H-pyrazol-4-yl)-3-methyl-8-(1H-pyrrolo[3,2-b]pyridin-6-yl)-1,3-dihydro-imidazo[4,5-c]quinolin-2-one] | < 3 | 33 | 13
Cc1nn(C)cc1-n1c(=O)n(C)c2cnc3ccc(-c4ccc(OCCO)nc4)cc3c21 [Example 107, 1-(1,3-Dimethyl-1H-pyrazol-4-yl)-8-[6-(2-hydroxy-ethoxy)-pyridin-3-yl]-3-methyl-1,3-dihydro-imidazo[4,5-c]quinolin-2-one] | 60 | 95 | 85
